These results are taken from US12606863B2, “Bioluminescent detection of DNA synthesis” (Promega Corporation, priority 2021, dated 2026).

Common to all, as to assay type: cell-based
The subject of experiment [1] is A549 cells. Description: Incorporation of modified nucleosides into newly synthesized DNA, NanoBiT detection, Example 7. Particulars: A549 5000 cells/well, 20 uM or 50 uM, 4.5 hours. The method, then:
A549 cells plated at 5000 cells/well were cultured in medium containing PBI-9391, PBI-9392, or PBI-9393 at 20 uM (light blue bars) or 50 uM (dark blue bars) final concentration for 4.5 hours. Cells without modified nucleosides were used as a control (brown bars). Incorporation of modified nucleosides into DNA was determined by removing the media, fixing and permeabilizing the cells, denaturing DNA, and incubating with HaloTag-LgBiT (HT-LgBiT) and HaloTag-SmBiT (HT-SmBiT) diluted in PBS with 0.01% BSA at 50 nM final concentration. After 2 hours incubation, the reagents were removed, the samples were washed with PBS, NanoLuc substrate was added, and luminescence was measured (FIG. 4).

Experiment [2] concerns A549 cells. Description: Simultaneous incorporation of modified nucleosides, all probes added together, NanoBiT detection, Example 8. Particulars: all probes added together at 5 or 12.5 uM each; A549 5,000 and 1,000 cells per well; compared to control cells. The procedure: Cells without modified nucleosides were used as a control (brown bars). Incorporation of modified nucleosides into DNA was determined by removing the media, fixing and permeabilizing the cells, denaturing DNA, and incubating with HaloTag-LgBiT (HT-LgBiT) and HaloTag-SmBiT (HT-SmBiT) diluted in PBS with 0.01% BSA at 50 nM final concentration. After 2 hours incubation, the reagents were removed, the samples were washed with PBS, NanoLuc substrate was added, and luminescence was measured (FIG. 4).
The experiment was conducted with A549 cells plated at 5,000 and 1,000 cells per well as described in Example 7.

The test system of experiment [3] is A549 cells. Description: Incorporation of modified nucleosides into newly synthesized DNA, detection with HT-LgBiT/HT-SmBiT (NANOBiT), Example 1. The conditions noted are these: A549 500 cells/well, 10 uM, 4 hours, fixed, permeabilized, DNA denatured; HT-LgBiT and HT-SmBiT 50 nM. The method, then: A549 cells plated at 500 cells/well were cultured in medium containing PBI-7931 (FIG. 2A, top) or PBI-7960 (FIG. 2A, bottom) at 10 uM final concentration for 4 hours. Cells without modified nucleosides were used as control. After culturing, the media was removed, cells fixed, permeabilized, and DNA denatured using acid treatment. […] Following a one-hour incubation, NANOLUC substrate was added, and luminescence was measured (FIG. 2B).

The subject of experiment [4] is A549 cells. The experiment is described as follows: Incorporation of modified chloroalkane nucleoside measured without DNA denaturation, Example 9. Particulars: A549 5000 cells/well, 10 uM, 0.5 hours or 4 hours; HT-LgBiT and HT-SmBiT 25 nM. The procedure: A549 cells plated at 5000 cells/well were cultured in medium containing PBI-7960 at 10 uM final concentration for 0.5 hours (light blue bar) or 4 hours (dark blue bar). Cells without modified nucleosides were used as control (brown bar). Incorporation of modified nucleosides into DNA was determined by removing the media, fixing and permeabilizing the cells and incubating with HT-LgBiT and HT-SmBiT diluted in PBS with 0.01% BSA at 25 nM final concentration. After 1 hour incubation, the NanoLuc substrate was added, and luminescence was measured.

Experiment [5] relates to A549 cells. The experiment is described as follows: Inhibition of DNA replication measured by modified nucleoside incorporation and NANOBiT luminescence, Example 2. The conditions noted are these: A549 2,000 cells/well, increasing doxorubicin for 2 hours, then PBI-7931 or -7960 at 10 uM for 4 hours. The method, then: A549 cells plated at 2,000 cells/well were treated with increasing concentrations of the DNA replication inhibitor doxorubicin for 2 hours in a tissue culture incubator. […] No compound was added to control cells. To measure the amount of newly synthesized DNA, HT-LgBiT and HT-SmBiT were added to the cells at 50 nM final concentration.

Turning to `Nc1ncnc2c1c(C#CCOC(=O)NCCOCCOCCCCCCCl)cn2[C@H]1C[C@H](O)[C@@H](CO)O1` [PBI-9393, 3-(4-amino-7-((2R,4S,5R)-4-hydroxy-5-(hydroxymethyl)tetrahydrofuran-2-yl)-7H-pyrrolo[2,3-d]pyrimidin-5-yl)prop-2-yn-1-yl(2-(2-((6-chlorohexyl)oxy)ethoxy)ethyl)carbamate], the “Incorporation into newly synthesized DNA detected via NanoBiT (FIG. 4)” value in the experiment on A549 cells [1] was “incorporated into newly synthesized DNA”. Further, the “Light output after simultaneous incorporation into newly synthesized DNA (FIG. 5)” value (“Light output” for short) in the experiment on A549 cells [2] was “increase in light output”. Take `O=C(NCC#Cc1cn([C@H]2C[C@H](O)[C@@H](CO)O2)c(=O)[nH]c1=O)c1ccc(C(=O)NCCOCCOCCCCCCCl)cc1` [PBI-7960, N1-(2-(2-((6-chlorohexyl)oxy)ethoxy)ethyl)-N4-(3-(1-((2R,4S,5R)-4-hydroxy-5-(hydroxymethyl)tetrahydrofuran-2-yl)-2,4-dioxo-1,2,3,4-tetrahydropyrimidin-5-yl)prop-2-yn-1-yl)terephthalamide]: the “Luminescence following incorporation of haloalkyl-modified nucleosides into newly-synthesized DNA (FIG. 2B)” value in the experiment on A549 cells [3] is on record as “Luminescence detected”. In addition, the “Incorporation detected without DNA denaturation (FIG. 6)” value in the experiment on A549 cells [4] is on record as “detected without DNA denaturation”. The “Light output” value in the experiment on A549 cells [2] was “increase in light output”.

For `Nc1nc(=O)c2c(C#CCOC(=O)NCCOCCOCCCCCCCl)cn([C@H]3C[C@H](O)[C@@H](CO)O3)c2[nH]1` [PBI-9392, 3-(2-amino-7-((2R,4S,5R)-4-hydroxy-5-(hydroxymethyl)tetrahydrofuran-2-yl)-4-oxo-4,7-dihydro-1H-pyrrolo[2,3-d]pyrimidin-5-yl)prop-2-yn-1-yl(2-(2-((6-chlorohexyl)oxy)ethoxy)ethyl)carbamate], in the experiment with A549 cells [1], the “Incorporation into newly synthesized DNA detected via NanoBiT (FIG. 4)” value is listed as “incorporated into newly synthesized DNA”. The “Light output” value in the experiment with A549 cells [2] is reported as “increase in light output”. Take `COc1cccc2c1C(=O)c1c(O)c3c(c(O)c1C2=O)C[C@@](O)(C(=O)CO)C[C@@H]3O[C@H]1C[C@H](N)[C@H](O)[C@H](C)O1` [doxorubicin]: the “Inhibition of DNA synthesis, detected by reduction in luminescence (FIG. 3)” value in the experiment on A549 cells [5] was “Inhibition of DNA synthesis”.

Turning to `O=C(NCCOCCOCCCCCCCl)OCC#Cc1cn([C@H]2CC(O)[C@@H](CO)O2)c(=O)[nH]c1=O` (some centres unmarked) [PBI-7931], the “Luminescence following incorporation of haloalkyl-modified nucleosides into newly-synthesized DNA (FIG. 2B)” value in the experiment on A549 cells [3] is listed as “Luminescence detected”. `Nc1nc(=O)n([C@H]2C[C@H](O)[C@@H](CO)O2)cc1C#CCOC(=O)NCCOCCOCCCCCCCl` [PBI-9391, 3-(4-amino-1-((2R,4S,5R)-4-hydroxy-5-(hydroxymethyl)tetrahydrofuran-2-yl)-2-oxo-1,2-dihydropyrimidin-5-yl)prop-2-yn-1-yl (2-(2-((6-chlorohexyl)oxy)ethoxy)ethyl)carbamate]: the “Incorporation into newly synthesized DNA detected via NanoBiT (FIG. 4)” value with A549 cells [1] is listed as “incorporated into newly synthesized DNA”. The “Light output” value with A549 cells [2] is listed as “increase in light output”.
